Assay results reported in article PMC11211886 (Frontiers in Pharmacology, 2024).

Columns and labels:
[1] = biological target: T1, BCRP (Homo sapiens, UniProt Q9UNQ0); assay: in vitro; settings: human
T1 sequence (Q9UNQ0 1-655): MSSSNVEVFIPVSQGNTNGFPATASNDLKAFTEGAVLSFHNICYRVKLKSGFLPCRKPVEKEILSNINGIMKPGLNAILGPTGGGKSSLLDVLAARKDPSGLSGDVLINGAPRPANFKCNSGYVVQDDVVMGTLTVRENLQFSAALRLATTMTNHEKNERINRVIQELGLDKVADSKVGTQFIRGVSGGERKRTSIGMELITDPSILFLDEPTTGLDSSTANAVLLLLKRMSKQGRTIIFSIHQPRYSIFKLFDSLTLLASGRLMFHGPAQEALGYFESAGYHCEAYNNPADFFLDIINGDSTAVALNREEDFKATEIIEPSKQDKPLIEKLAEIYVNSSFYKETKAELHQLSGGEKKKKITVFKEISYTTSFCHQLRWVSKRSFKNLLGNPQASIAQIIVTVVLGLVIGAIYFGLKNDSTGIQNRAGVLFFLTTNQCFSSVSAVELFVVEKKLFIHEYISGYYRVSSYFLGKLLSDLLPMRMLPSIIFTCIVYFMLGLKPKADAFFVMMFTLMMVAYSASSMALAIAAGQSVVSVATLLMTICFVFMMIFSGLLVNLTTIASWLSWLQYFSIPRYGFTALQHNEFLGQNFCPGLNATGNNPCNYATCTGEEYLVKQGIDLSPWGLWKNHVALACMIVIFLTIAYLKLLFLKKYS
From the text: (§1) The experimental conditions were similar to those of the permeability study.

[2] = biological target: P-gp (Homo sapiens, UniProt P08183); assay: P-gp inhibition, digoxin transport across Caco-2 monolayers
P-gp, sequence (P08183 whole entry): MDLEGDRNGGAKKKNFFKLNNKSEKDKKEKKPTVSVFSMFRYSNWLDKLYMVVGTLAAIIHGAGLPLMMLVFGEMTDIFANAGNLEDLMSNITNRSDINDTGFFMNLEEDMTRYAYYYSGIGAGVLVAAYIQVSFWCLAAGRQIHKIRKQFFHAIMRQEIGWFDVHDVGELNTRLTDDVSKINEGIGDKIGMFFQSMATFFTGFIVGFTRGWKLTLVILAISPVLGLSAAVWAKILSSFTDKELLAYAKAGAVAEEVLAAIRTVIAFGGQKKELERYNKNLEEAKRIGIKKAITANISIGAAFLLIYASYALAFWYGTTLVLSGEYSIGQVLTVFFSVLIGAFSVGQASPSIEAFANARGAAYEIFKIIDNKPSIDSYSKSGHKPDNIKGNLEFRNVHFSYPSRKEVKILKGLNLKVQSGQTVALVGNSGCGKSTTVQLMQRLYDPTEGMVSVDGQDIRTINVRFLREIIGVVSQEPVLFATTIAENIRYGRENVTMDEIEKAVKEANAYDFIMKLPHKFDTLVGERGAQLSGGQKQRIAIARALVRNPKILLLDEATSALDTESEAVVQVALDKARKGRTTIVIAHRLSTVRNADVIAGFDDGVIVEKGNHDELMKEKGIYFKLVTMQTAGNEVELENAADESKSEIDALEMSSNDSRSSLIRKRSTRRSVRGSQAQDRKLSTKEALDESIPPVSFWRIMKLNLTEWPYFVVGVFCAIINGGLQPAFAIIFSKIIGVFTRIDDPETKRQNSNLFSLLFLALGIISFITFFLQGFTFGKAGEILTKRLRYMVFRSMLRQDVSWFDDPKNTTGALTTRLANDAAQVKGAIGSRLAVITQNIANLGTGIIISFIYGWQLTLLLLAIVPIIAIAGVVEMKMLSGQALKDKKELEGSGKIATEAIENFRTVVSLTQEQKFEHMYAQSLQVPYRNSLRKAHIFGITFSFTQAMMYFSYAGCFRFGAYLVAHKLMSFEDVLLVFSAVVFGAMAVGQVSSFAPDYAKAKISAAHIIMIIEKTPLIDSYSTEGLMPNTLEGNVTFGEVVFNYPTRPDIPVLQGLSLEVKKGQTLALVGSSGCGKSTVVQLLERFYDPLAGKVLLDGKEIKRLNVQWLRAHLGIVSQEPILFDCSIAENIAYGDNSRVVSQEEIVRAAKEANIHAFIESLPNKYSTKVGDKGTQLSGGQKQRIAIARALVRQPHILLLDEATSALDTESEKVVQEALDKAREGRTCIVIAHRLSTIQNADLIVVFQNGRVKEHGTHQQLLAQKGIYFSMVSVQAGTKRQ
From the text: as §1

[3] = test system: CYP3A4 mRNA; assay: CYP induction in human hepatocytes, CYP3A4 mRNA (RT-PCR); format: in vitro ADME
Protocol: (§2) […] […] […] Enzyme activity for each CYP isoform was reported as a fold change over vehicle control and the percent of positive control (detailed calculation in Supplementary 1.1). Hepatocytes were harvested with a lysis buffer from RNeasy 96 Kit (Qiagen Inc., Germantown, MD, USA) to isolate RNA, which was analyzed by real-time quantitative polymerase chain reaction (RT-PCR). […] Emax (the maximal observed induction) and EC50 (the concentration that supports half-maximal induction) were estimated by non-linear regression of fold increase in CYP mRNA expression versus concentration plots.
% of positive control = [(fold change in treated sample)-1] / [(fold change in positive control)-1] × 100

[4] = Amdizalisib remaining/concentration after the last incubation in hepatocyte induction assays; settings: for Amdizalisib concentration: CYP2C induction assay; for percentage of amdizalisib remaining: 5 h after last incubation
Protocol: as §2

[5] = biological target: T2, CYP2C8 (Homo sapiens, UniProt P10632); assay: Time-dependent CYP inhibition in HLM, CYP2C8; format: in vitro ADME; settings: 10 μM, 30 min pre-incubation with NADPH
T2 construct: tissue Life Technologies (Durham, NC, USA); host or cells: human liver microsomes
T2 sequence (P10632 1-490): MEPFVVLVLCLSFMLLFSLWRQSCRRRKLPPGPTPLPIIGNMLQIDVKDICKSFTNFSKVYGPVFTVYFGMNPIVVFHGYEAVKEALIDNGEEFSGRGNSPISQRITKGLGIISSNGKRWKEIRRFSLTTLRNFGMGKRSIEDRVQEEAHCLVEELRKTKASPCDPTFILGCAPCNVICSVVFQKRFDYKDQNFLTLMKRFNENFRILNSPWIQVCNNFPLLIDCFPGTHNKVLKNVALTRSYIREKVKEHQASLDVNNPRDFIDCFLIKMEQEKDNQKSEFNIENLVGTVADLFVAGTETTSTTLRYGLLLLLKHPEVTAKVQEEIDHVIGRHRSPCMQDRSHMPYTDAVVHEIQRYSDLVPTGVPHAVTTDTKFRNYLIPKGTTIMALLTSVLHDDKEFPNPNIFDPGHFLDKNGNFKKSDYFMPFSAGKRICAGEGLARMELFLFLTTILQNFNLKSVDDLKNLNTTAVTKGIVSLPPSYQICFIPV
Protocol: The procedure of time-dependent CYP inhibition was similar to that used for CYP reversible inhibition, as mentioned above, except that a pre-incubation step was added. […] Another appropriate volume of the NADPH-regenerating system and probe substrate were added to initiate the CYP isoform enzyme activity test step. For this step, the incubation period was 10 min, except for CYP2B6, CYP2C8, and CYP3A4/5 (probe substrate: midazolam), which was 3 min to make sure the reaction was under initial linear rates. After incubation for the designated time periods at 37°C, the ice-cold acetonitrile containing IS was added to quench the reaction. […] (Ainactivator/[…] represents the enzyme activity remaining due to the inhibition by the diluted inactivator in the enzyme activity test step, and (Ainactivator/[…] represents the remaining enzyme activity due to pre-incubation loss plus inhibition by the diluted inactivator in the enzyme activity test step.

Compound: C[C@H](Nc1ncnc(N)c1C#N)c1cc2ncc(Cl)n2nc1-c1ccccc1 [Amdizalisib]
- inhibition at 60 min, 0.1 µM [1]: 28.5%
- inhibition at 60 min, 0.5 µM [1]: 34.2%
- inhibition at 60 min, 2 µM [1]: 21.3%
- inhibition at 60 min, 5 µM [1]: 24.2%
- inhibition at 60 min, 10 µM [1]: 43.6%
- inhibition at 60 min, 40 µM [1]: 52.9%
- inhibition at 60 min, 60 µM [1]: 66.4%
- inhibition at 60 min, 80 µM [1]: 52%
- IC50 [2]: 22.9 µM
- inhibition at 60 min, 0.5 µM ([2]; human): -3.22%
- inhibition at 60 min, 2 µM ([2]; human): 1.75%
- inhibition at 60 min, 5 µM ([2]; human): 17%
- inhibition at 60 min, 20 µM ([2]; human): 46.5%
- inhibition at 60 min, 40 µM ([2]; human): 58.4%
- inhibition at 60 min, 60 µM ([2]; human): 75.9%
- inhibition at 60 min, 80 µM ([2]; human): 83.6%
- R3 value (CYP3A4 induction, basic kinetic model) [3]: ≤ 0.8
- induction on CYP3A4 mRNA expression ([3]; 20 uM): >2-fold induction on CYP1A2, 2B6, 3A4, 2C9 mRNA expression at 20 uM
- Gene expression Percent of PC (%) ([3]; CYP3A4, donor seven, 1 µM): 8.40%
- Gene expression Percent of PC (%) ([3]; CYP3A4, donor seven, 3 µM): 2.70%
- Gene expression Percent of PC (%) ([3]; CYP3A4, donor seven, 10 µM): 46.6%
- Gene expression Percent of PC (%) ([3]; CYP3A4, donor seven, 20 µM): 23.3%
- Gene expression Percent of PC (%) ([3]; CYP3A4, donor seven, 30 µM): 53.6%
- Gene expression Percent of PC (%) ([3]; CYP3A4, donor six, 1 µM): 1.00%
- Gene expression Percent of PC (%) ([3]; CYP3A4, donor six, 3 µM): 1.60%
- Gene expression Percent of PC (%) ([3]; CYP3A4, donor six, 10 µM): 11.9%
- Gene expression Percent of PC (%) ([3]; CYP3A4, donor six, 20 µM): 21.4%
- Gene expression Percent of PC (%) ([3]; CYP3A4, donor six, 30 µM): 21.9%
- Gene expression Percent of PC (%) ([3]; CYP3A4, donor two, 1 µM): 1.30%
- Gene expression Percent of PC (%) ([3]; CYP3A4, donor two, 3 µM): 0.60%
- Gene expression Percent of PC (%) ([3]; CYP3A4, donor two, 10 µM): 15.9%
- Gene expression Percent of PC (%) ([3]; CYP3A4, donor two, 20 µM): 13.4%
- Gene expression Percent of PC (%) ([3]; CYP3A4, donor two, 30 µM): 28.1%
- Emax, CYP3A4 expression ([3]; donor seven): 6.97 fold
- Emax, CYP3A4 expression ([3]; donor six): 35.7 fold
- Emax, CYP3A4 expression ([3]; donor two): > 26.5 fold
- Amdizalisib concentration ([4]; nominal 3 µM, donor eight, 1h): 3.57 ± 0.26 µM
- Amdizalisib concentration ([4]; nominal 3 µM, donor four, 1h): 3.38 ± 0.33 µM
- Amdizalisib concentration ([4]; nominal 20 µM, donor eight, 1h): 23.3 ± 0.27 µM
- Amdizalisib concentration ([4]; nominal 20 µM, donor eight, 4h): 21.2 ± 2.3 µM
- Amdizalisib concentration ([4]; nominal 20 µM, donor eight, 24h): 21.9 ± 0.27 µM
- percentage of amdizalisib remaining ([4]; donor seven, 30 µM): 105.3%
- percentage of amdizalisib remaining ([4]; donor two, 10 µM): 105.8%
- percentage of amdizalisib remaining ([4]; donor two, 30 µM): 104.3%
- activity loss of CYP2C8 [5]: less than 10%
